Source: article PMC9782626, “Copper(II) Complexes of 5–Fluoro–Salicylaldehyde: Synthesis, Characterization, Antioxidant Properties, Interaction with DNA and Serum Albumins” (Molecules, 2022)

System: EB–DNA conjugate (CT DNA)
Assay: EB-displacement studies (fluorescence of EB-DNA conjugate)
Type: binding, calf
Conditions: for Stern–Volmer constant Ksv (EB–DNA) / ΔΙ/Ιο, percentage of EB–DNA fluorescence quenching: [EB] = 20 µM, [DNA] = 26 µM; for ΔΙ/Ιο, percentage of EB–DNA fluorescence quenching: 592 nm; for EB–DNA quenching constant kq: from KSV with τo = 23 ns; for EB–DNA relative fluorescence emission intensity I/Io remaining (% of initial): λemission = 592 nm, final value, r up to 0.36
Excerpt: EB is a well-known indicator of DNA intercalation, since its insertion in-between adjacent DNA base pairs may lead to the development of effective π–π stacking interactions. A solution containing the EB–DNA adduct presents an intense fluorescence emission band at 592 nm when excited at λex = 540 nm. The addition of a compound intercalating to DNA equally or more tightly than EB into this solution may induce changes to the emission band which are monitored, in order to gain insight into its competition with EB for the DNA intercalation site.
The fluorescence emission spectra of pretreated EB–DNA ([EB] = 20 µM, [DNA] = 26 µM) were recorded in the presence of increasing amounts of the complexes (representatively shown for complex 1 in Figure 6A).
The Stern–Volmer (KSV) constants (Table 6) of the complexes were calculated with the Stern–Volmer equation (Equation (S2)) and Stern–Volmer plots. The KSV values are relatively high (of the […] magnitude), indicating a tight binding to CT DNA. […] The EB–DNA quenching constants (kq) of the compounds (Table 6) were calculated with Equation (S3) (considering τo = 23 ns as the EB–DNA fluorescence lifetime); the kq values are higher than 10^10 M^−1 s^−1 [56], proposing the existence of a static quenching mechanism, which may confirm the interaction with the fluorophore and the displacement of EB. […]
S2Binding studies with CT DNA […]
S2.3 EB -displa cement studie s
The competition of the complexes with EB was investigated by fluorescence emission spectroscopy in order to examine whether the compounds can displace EB from its DNA-EB conjugate. The CT DNA-EB complex was formed by pre-treating 20 μM EB and 26 μM CT DNA in buffer (150 mM NaCl and 15 mM trisodium citrate at pH = 7.0).
The possible displacement of EB by the compounds and su bseq uently t he ir intercalating effect was studied by the stepwise addition of a certain amount of the solution of each […]
compound into the solution of the CT DNA-EB adduct. The solut ions were excited at 540 nm and the emission was monitored from 550-700 nm with λmax= 592- 595 nm and the effe ct of the addition of each compound to the CT-DNA EB solution was recorded. The […]
solution or in the presence of CT DNA or EB under the same experimental conditions (λ ex = 540 nm); therefore, the observed quenching of the EB-DNA solution may be attributed to the displacement of EB from its EB -DNA add uct.
The Stern-Volmer constants (KSV, in M -1) were calculated according by the linear Stern-Volmer equation (eq. S2) [S 4] and the respect ive plots Io/I versus [ compound].
Io =1+ k τ [Q] =1+ K [Q] (eq. S2) […]
where Io and I are the emission intensit ies of the EB-DNA solut ion in the absence and the presence of the compounds , respectively, τo= the average lifetime of the emitting system without the quencher and kq = the quenching constant. Taking τo = 23 ns as the fluorescence lifetime of the EB-DNA adduct [S5], the quenching co nstants (k q, in M -1s-1) of the compounds were calculated according to eq. S3 [S 4]:
S3Albumin -binding studies
In order to investigate if the compounds can bind to carrier proteins like serum albumins, we carried out albumin binding study by tryptophan fluorescence quenching experiments using bo vine serum albumin (BSA, 3 μM) in buffer (containing 15 mM trisodium citrate and 150 mM NaCl at pH 7.0). The quenching of the emission intensity of tryptophan residues of BSA at 343 nm was monitored using the co mpounds as que ncher s with increasing concentration [S4]. The fluo rescence emission spectra of the compounds were also recorded with λex = 295 nm. No fluorescence emission band was recorded and thus it was not related to the compounds . The influence of the inner-filter effect [S6] on the measurements wa s evaluated by equation S4.
Where Icorr = corrected intensity, Imeas = the measured intensity, c = the concentration of the quencher, d = the cuvette (1 cm), ε (λexc ) and ε(λe m) = the ε of the quencher at the excitation […]

Row | SMILES | Stern–Volmer constant Ksv (EB–DNA) | ΔΙ/Ιο, percentage of EB–DNA fluorescence quenching | EB–DNA quenching constant kq | EB–DNA relative fluorescence emission intensity I/Io remaining (% of initial)
1 | O=Cc1cc(F)ccc1[O-].O=Cc1cc(F)ccc1[O-].[Cu+2] [Complex 1, [Cu(5–F–salo)2]] | 1.56 (±0.02) × 10^5 M^−1 | 44.8% | 6.78 (±0.09) × 10^12 M^−1 s^−1 | 55.2%
2 | O=Cc1cc(F)ccc1[O-].[Cl-].[Cu+2].c1ccc(Nc2ccccn2)nc1 [Complex 2, [Cu(5–F–salo)(bipyam)Cl]] | 6.23 (±0.11) × 10^4 M^−1 | 44.5% | 2.71 (±0.05) × 10^12 M^−1 s^−1 | 55.5%
3 | CO.Cc1ccc2ccc3ccc(C)nc3c2n1.O=Cc1cc(F)ccc1[O-].[Cl-].[Cu+2] [Complex 3, [Cu(5–F–salo)(neoc)Cl].CH3OH] | 3.35 (±0.05) × 10^4 M^−1 | 49.1% | 1.46 (±0.02) × 10^12 M^−1 s^−1 | 50.9%
4 | O=Cc1cc(F)ccc1[O-].O=[N+]([O-])[O-].[Cu+2].c1cnc2c(c1)ccc1cccnc12 [Complex 4, [Cu(5–F–salo)(phen)(NO3)]] | 6.77 (±0.07) × 10^4 M^−1 | 48.4% | 2.94 (±0.03) × 10^12 M^−1 s^−1 | 51.6%
5 | O=Cc1cc(F)ccc1[O-].O=[N+]([O-])[O-].[Cu+2].c1ccc(-c2ccccn2)nc1 [Complex 5, [Cu(5–F–salo)(bipy)(NO3)]] | 3.14 (±0.06) × 10^4 M^−1 | – | 1.36 (±0.03) × 10^12 M^−1 s^−1 | –
